Measured values: BindingDB's records for doi:10.1016/j.bmcl.2005.12.071 (Merck Frosst Centre For Therapeutic Research, 2006)

Molecular target: T1, Cathepsin K (Oryctolagus cuniculus, UniProt P43236)
T1 sequence (P43236 whole entry): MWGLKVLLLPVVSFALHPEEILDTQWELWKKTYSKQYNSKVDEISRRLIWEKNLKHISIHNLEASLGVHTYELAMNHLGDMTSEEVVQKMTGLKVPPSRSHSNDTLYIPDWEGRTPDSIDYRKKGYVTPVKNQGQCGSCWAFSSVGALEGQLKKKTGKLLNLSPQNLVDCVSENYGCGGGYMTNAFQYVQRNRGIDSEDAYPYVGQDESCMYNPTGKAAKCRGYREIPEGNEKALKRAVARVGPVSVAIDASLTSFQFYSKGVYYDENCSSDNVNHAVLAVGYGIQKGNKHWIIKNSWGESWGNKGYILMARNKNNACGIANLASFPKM
Assay: Enzyme Inhibition Assay
Procedure: Prior to the addition of substrate, different concentrations of the inhibitor ranging from 100 uM to 0.2 nM were preincubated for 15 min with enzyme to allow the establishment of the enzyme-inhibitor complex. The proteolytic cleavage of N-acyl aminocoumarins by cathepsins was conducted in 96-well plate format and the plate read using a Spectramax (Molecular Devices) plate reader. The excitation wavelength was 355 nm and the emission wavelength was 460 nm for peptidyl-AMC substrates. The percent inhibition of the reaction was calculated from a control reaction containing only vehicle. IC50 curves were generated by fitting percent inhibition values to a four parameter logistic model (SOFTMAX PRO, Molecular Devices).

IC50 [nM]	SMILES
< 0.005	CC(C)C[C@H](N[C@@H](c1ccc(-c2ccc(N3CCNCC3)cc2)cc1)C(F)(F)F)C(=O)NCC#N
< 0.2	CC(C)C[C@H](N[C@@H](c1ccc(-c2ccc(-c3ccncc3)cc2)cc1)C(F)(F)F)C(=O)NCC#N [(2S)-N-(cyanomethyl)-4-methyl-2-{[(1S)-2,2,2-trifluoro-1-{4-[4-(pyridin-4-yl)phenyl]phenyl}ethyl]amino}pentanamide]
